Assay results reported in patent publication US10508109B2 (priority 2015, dated 2019).
Counter-ions that a name gives are not always drawn. Like-named read-outs stand apart in the source and are kept apart here.

What was measured:
[1] = system: CCD-18Co; experiment: Cell-based assay, anti-proliferative activity (Cell Counting Kit-8, 72 hours); details: Homo sapiens, read-out: IC50 (μM) CCD-18Co
Method in brief: (§1)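 Seed cells in 96-well plates; add serially diluted inhibitor (1.5625 to 100 micro-M plus vehicle); incubate 72 hours; quantify viable growth by CCK-8 and calculate IC50.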

[2] = system: PC14; experiment: as above; details: Homo sapiens, read-out: IC50 (μM) PC14
Method in brief: as §1

[3] = system: HFL1; experiment: as above; details: Homo sapiens, read-out: IC50 (μM) HFL1
Method in brief: as §1

[4] = system: HCT-116; experiment: as above; details: Homo sapiens, read-out: IC50 (μM) HCT-116
Method in brief: as §1

[5] = system: A549; experiment: as above; details: Homo sapiens, read-out: IC50 (μM) A549
Method in brief: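 Growth read-out after inhibitor treatment of plated cells; potency expressed as IC50.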

[6] = molecular target: SUV39H2 (Homo sapiens (Human), UniProt Q9H5I1); details: read-out: IC50 (μM) Suv 39H2 assay
SUV39H2, sequence (Q9H5I1 whole entry): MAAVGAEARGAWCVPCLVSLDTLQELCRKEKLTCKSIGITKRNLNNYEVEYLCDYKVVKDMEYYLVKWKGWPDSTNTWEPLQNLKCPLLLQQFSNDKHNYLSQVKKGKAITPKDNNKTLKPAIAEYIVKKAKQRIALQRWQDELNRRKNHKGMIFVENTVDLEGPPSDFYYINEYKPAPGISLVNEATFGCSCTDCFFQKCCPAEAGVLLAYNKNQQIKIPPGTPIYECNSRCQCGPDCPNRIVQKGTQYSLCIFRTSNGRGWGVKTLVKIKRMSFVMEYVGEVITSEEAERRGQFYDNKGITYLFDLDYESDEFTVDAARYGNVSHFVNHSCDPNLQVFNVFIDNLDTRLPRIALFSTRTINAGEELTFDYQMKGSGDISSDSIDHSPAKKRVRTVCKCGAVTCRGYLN

[7] = CCD-18Co cells, 72 hours, Cell Counting Kit-8
[8] = PC-14, PC14 cells, 72 hours, Cell Counting Kit-8
[9] = HFL1 cells, 72 hours, Cell Counting Kit-8
[10] = HCT-116 cells, 72 hours, Cell Counting Kit-8
[11] = A549 cells, 72 hours, Cell Counting Kit-8
[12] = CCD-18Co cells, Cell Counting Kit-8, 72 hours
[13] = PC-14, PC14 cells, Cell Counting Kit-8, 72 hours
[14] = HFL1 cells, Cell Counting Kit-8, 72 hours
[15] = HCT-116 cells, Cell Counting Kit-8, 72 hours
[16] = A549 cells, Cell Counting Kit-8, 72 hours

| Compound | IC50 ([1]; CCD-18Co, 72 h) | IC50 ([2]; PC-14, 72 h) | IC50 ([3]; HFL1, 72 h) | IC50 ([4]; HCT-116, 72 h) | IC50 ([5]; A549, 72 h) | IC50 ([6]; enzyme assay) | IC50 [1, 7] | IC50 [2, 8] | IC50 [3, 9] | IC50 [4, 10] | IC50 [5, 11] | IC50 [1, 12] | IC50 [2, 13] | IC50 [3, 14] | IC50 [4, 15] | IC50 [5, 16] | IC50 [6] |
| --- | --- | --- | --- | --- | --- | --- | --- | --- | --- | --- | --- | --- | --- | --- | --- | --- | --- |
| CNc1ccn2cc(-c3cc(Br)c(OC)cc3OC)nc2c1 [Example 11, 2-(5-bromo-2,4-dimethoxyphenyl)-N-methylimidazo[1,2-a]pyridin-7-amine hydrobromide] | 2 µM | 0.88 µM | 1.7 µM | 1.1 µM | 1.4 µM | 0.0094 µM | – | – | – | – | – | – | – | – | – | – | – |
| COc1cc(OC)c(-c2cn3ccc(-c4ccc(C(=O)N5CCNCC5)cc4)cc3n2)cc1Cl [Example 254, (4-(2-(5-chloro-2,4-dimethoxyphenyl)imidazo[1,2-a]pyridin-7-yl)-phenyl)(piperazin-1-yl)methanone] | – | – | – | – | – | 0.0383 µM | 3.1 µM | 0.99 µM | 2.8 µM | 2.6 µM | 2.7 µM | – | – | – | – | – | – |
| COc1cc(OC)c(-c2cn3ccc(N(C)CCN)cc3n2)cc1Cl [Example 54, N^1-(2-(5-chloro-2,4-dimethoxyphenyl)imidazo[1,2-a]yridine-7-yl)-N1-metylethane-1,2-diamine] | 3.3 µM | 4.9 µM | 2.5 µM | 3.1 µM | 4.2 µM | 0.00585 µM | – | – | – | – | – | – | – | – | – | – | – |
| COc1cc(OC)c(-c2cn3ccc(N4CCCN(C(=O)OC(C)(C)C)CC4)cc3n2)cc1Cl [Example 184, tert-butyl 4-[2-(5-chloro-2,4-dimethoxyphenyl)imidazo[1,2-a]pyridin-7-yl]-1,4-diazepane-1-carboxylate] | – | – | – | – | – | 0.0285 µM | – | – | – | – | – | 4.9 µM | 2.5 µM | 2.2 µM | 5.7 µM | 3.8 µM | – |
| COc1cc(OC)c(-c2cn3ccc(N4CCN(CCF)CC4)cc3n2)cc1Cl [Example 104, 2-(5-chloro-2,4-dimethoxyphenyl)-7-(4-(2-fluoroethyl)piperazin-1-yl)-imidazo[1,2-a]pyridine] | – | – | – | – | – | 0.00666 µM | – | – | – | – | – | 8.9 µM | 4.7 µM | 4.2 µM | 8.3 µM | 6.7 µM | – |
| COc1cc(OC)c(-c2cn3ccc(N4CC[C@H](NCc5cccnc5)C4)cc3n2)cc1Cl [Example 300, (S)-1-(2-(5-chloro-2,4-dimethoxyphenyl)imidazo[1,2-a]pyridin-7-yl)-N-(pyridin-3-ylmethyl)pyrrolidin-3-amine] | – | – | – | – | – | 0.0127 µM | 6.1 µM | 3.5 µM | 7.1 µM | 4.7 µM | 6 µM | – | – | – | – | – | – |
| COc1cc(OC)c(-c2cn3ccc(N4CCN(c5ccnc(N(C)C)n5)CC4)cc3n2)cc1Cl [Example 297, 4-(4-(2-(5-chloro-2,4-dimethoxyphenyl)imidazo[1,2-a]pyridin-7-yl)-piperazin-1-yl)-N,N-dimethylpyrimidin-2-amine] | – | – | – | – | – | 0.0342 µM | 0.72 µM | 0.47 µM | 0.65 µM | 0.33 µM | 0.43 µM | – | – | – | – | – | – |
| COc1cc(OC)c(-c2cn3ccc(N4CCN(CCC(N)=O)CC4)cc3n2)cc1Cl [Example 137, 3-(4-(2-(5-chloro-2,4-dimethoxyphenyl)imidazo[1,2-a]pyridin-7-yl)piperazin-1-yl)propanamide] | – | – | – | – | – | 0.00454 µM | – | – | – | – | – | 14 µM | 12 µM | 13 µM | 14 µM | 24 µM | – |
| COc1cc(OC)c(-c2cn3ccc(NC(=O)[C@@H]4CCCN4)cc3n2)cc1Cl [Example 244, (S)—N-(2-(5-chloro-2,4-dimethoxyphenyl)imidazo[1,2-a]pyridin-7-yl)-pyrrolidine-2-carboxamide] | – | – | – | – | – | 0.0533 µM | 8.8 µM | 5.2 µM | 9.8 µM | 10 µM | 10 µM | – | – | – | – | – | – |
| CC[C@H](C)[C@H](NC)C(=O)Nc1ccn2cc(-c3cc(Cl)c(OC)cc3OC)nc2c1 [Example 266, (2S,3S)—N-(2-(5-chloro-2,4-dimethoxyphenyl)imidazo[1,2-a]pyridin-7-yl)-3-methyl-2-(methylamino)pentanamide] | – | – | – | – | – | 0.0454 µM | 1.3 µM | 1.5 µM | 1.2 µM | 2.8 µM | 1.5 µM | – | – | – | – | – | – |
| COc1cc(OC)c(-c2cn3ccc(N4CCN(S(=O)(=O)C5CCCC5)CC4)nc3n2)cc1Cl [Example 204, 2-(5-chloro-2,4-dimethoxyphenyl)-7-[4-(cyclopentylsulfonyl)-piperazin-1-yl]imidazo[1,2-a]pyrimidine] | – | – | – | – | – | 0.0448 µM | – | – | – | – | – | 4.5 µM | 0.6 µM | 1.7 µM | 1 µM | 0.75 µM | – |
| COc1cc(OC)c(-c2cn3ccc(N4CCN(CCCN(C)C)C4=O)cc3n2)cc1Cl [Example 167, 1-(2-(5-chloro-2,4-dimethoxyphenyl)imidazo[1,2-a]pyridin-7-yl)-3-(3-(dimethylamino)propyl)imidazolidin-2-one] | – | – | – | – | – | 0.0124 µM | – | – | – | – | – | 6.9 µM | 3.9 µM | 6.5 µM | 6.8 µM | 6.4 µM | – |
| COc1cc(OC)c(-c2cn3ccc(N4CCC(NS(=O)(=O)Cc5ccccc5)CC4)cc3n2)cc1Cl [Example 175, N-{1-[2-(5-chloro-2,4-dimethoxyphenyl)imidazo[1,2-a]pyridin-7-yl]piperidin-4-yl}-1-phenylmethanesulfonamide] | – | – | – | – | – | 0.0263 µM | – | – | – | – | – | 2 µM | 1.8 µM | 1.9 µM | 1.5 µM | 2 µM | – |
| COc1cc(OC)c(-c2cn3ccc(N4CCN(CCN5CCCCC5)CC4)cc3n2)cc1Cl [Example 135, 2-(5-chloro-2,4-dimethoxyphenyl)-7-(4-(2-(piperidin-1-yl)ethyl)piperazin-1-yl)imidazo[1,2-a]pyridine] | – | – | – | – | – | 0.0128 µM | – | – | – | – | – | 2.8 µM | 2.6 µM | 4.8 µM | 2.4 µM | 3 µM | – |
| COc1cc(OC)c(-c2cn3ccc(N4CCC(CN(C)C)CC4)cc3n2)cc1Cl [Example 97, 1-(1-(2-(5-Chloro-2,4-dimethoxyphenyl)imidazo[1,2-a]pyridin-7-yl)piperidin-4-yl)-N,N-dimethylmethanamine] | – | – | – | – | – | 0.00768 µM | – | – | – | – | – | 6.5 µM | 2.3 µM | 2.4 µM | 2.8 µM | 3.2 µM | – |
| COc1cc(C)c(Cl)cc1-c1cn2ccc(N3CCNCC3)cc2n1 [Example 228, 2-(5-chloro-2-methoxy-4-methylphenyl)-7-(piperazin-1-yl)imidazo[1,2-a]pyridine hydrochloride] | 2.6 µM | 2.3 µM | 1.6 µM | 2 µM | 2.8 µM | – | – | – | – | – | – | – | – | – | – | – | 0.033 µM |
| COc1cc(OCC2CC2)c(-c2cn3ccc(N4CCCC4)cc3n2)cc1Cl [Example 82, 2-(5-chloro-2-(cyclopropylmethoxy)-4-methoxyphenyl)-7-(pyrrolidin-1-yl)imidazo[1,2-a]pyridine] | – | – | – | – | – | 0.00538 µM | – | – | – | – | – | 3.8 µM | 4.7 µM | 2 µM | 3.2 µM | 3.5 µM | – |
| COc1cc(OCCCN(C)C)c(-c2cn3ccc(N4CCN(S(=O)(=O)N(C)C)CC4)cc3n2)cc1Cl [Example 196, 4-(2-{5-Chloro-2-[3-(dimethylamino)propoxy]-4-methoxyphenyl}imidazo[1,2-a]pyridin-7-yl)-N,N-dimethylpiperazine-1-sulfonamide] | – | – | – | – | – | 0.0147 µM | – | – | – | – | – | 2.8 µM | 1.9 µM | 2.4 µM | 2.2 µM | 2.1 µM | – |
| COc1cc(OC)c(-c2cn3ccc(N4CCN(c5cccnc5)CC4)cc3n2)cc1Cl [Example 296, 2-(5-chloro-2,4-dimethoxyphenyl)-7-(4-(pyridin-3-yl)piperazin-1-yl)imidazo[1,2-a]pyridine] | – | – | – | – | – | 0.013 µM | 0.79 µM | 0.64 µM | 0.73 µM | 0.56 µM | 0.66 µM | – | – | – | – | – | – |
| CNc1ccn2cc(-c3cc(Cl)c(OC)cc3OC)nc2c1 [Example 6, 2-(5-chloro-2,4-dimethoxyphenyl)-N-methylimidazo[1,2-a]pyridin-7-amine hydrobromide] | 2.7 µM | 1.4 µM | 1 µM | 1.7 µM | 2.2 µM | 0.00943 µM | – | – | – | – | – | – | – | – | – | – | – |
| COc1cc(OC)c(-c2cn3ccc(N4CCC(CO)CC4)cc3n2)cc1Cl [Example 41, (1-(2-(5-chloro-2,4-dimethoxyphenyl)imidazo[1,2-a]pyridine-7-yl)piperidin-4-yl)methanol] | – | – | – | – | – | 0.0054 µM | – | – | – | – | – | 3.1 µM | 2.8 µM | 2.9 µM | 3.5 µM | 3.2 µM | – |
